Source: the SangsterLogP compilation

How the values were obtained:
[1] = method code SF-RC, from PMID: 3380859; conditions: pH 1.0
[2] = method code SF-GLC, from DOI: 10.1584/jpestics.7.397
[3] = pH 7.5
[4] = not given; remark: listed apart in the source
[5] = method code SF-AS, from DOI: 10.1016/s0006-291x(75)80410-4, PMID: 1111518
[6] = method code SF-HPLC, from DOI: 10.1021/jm100498u, PMID: 20704351; conditions: pH 7.4
[7] = not given; remark: listed apart in the source
[8] = method code SF, from Li, Y.; Sun, S.; Zheng, Y. (2012). Determination of partition coefficients of icariside-II and icaritin based on the HPLC retention time. Chinese Pharmaceutical Journal, 47, 122-126.
[9] = method code RP-HPLC, from DOI: 10.1016/0043-1354(79)90252-5; conditions: pH 7.0
[10] = method code SF-HPLC, from DOI: 10.1016/j.ejmech.2009.03.025, PMID: 19386398; conditions: pH 7.4
[11] = method code SF-AS, from DOI: 10.1002/jps.2600701116, PMID: 7299671; conditions: pH 2.2
[12] = method code SF-AS, from Falk, M.; Luecke, L. (1989). Transport of substances through lipid membranes. 11. Effect of esterification on the dissociation and permeation of orotic acid. Pharmazie, 44(9)647.; conditions: pH 1.2
[13] = method code SF-HPLC, from DOI: 10.1016/0378-5173(90)90303-l; conditions: pH 7.4
[14] = not given; remark: listed apart in the source
[15] = method code SF-RC, from DOI: 10.1016/s0969-8051(03)00053-2; conditions: pH 7.4
[16] = method code SF-AS, from DOI: 10.1016/j.ejps.2014.12.009, PMID: 25513709; conditions: pH 7.4
[17] = method code SF-AS, from DOI: 10.1016/s0026-895x(25)10375-1
[18] = not given; remark: listed apart in the source
[19] = not given; remark: listed apart in the source
[20] = method code SF-AS, from DOI: 10.1081/jlc-100101656
[21] = method code SF-HPLC, from DOI: 10.1016/0378-5173(85)90221-2; conditions: pH 1.5
[22] = method code SF-RC, from DOI: 10.1016/j.nucmedbio.2008.11.010, PMID: 19217534; conditions: pH 7.4
[23] = method code SF-AS, from DOI: 10.1016/s0928-0987(01)00170-1, PMID: 11500262; conditions: pH 12.5
[24] = method code SF-AS, from PMID: 12408720; conditions: pH 7.4
[25] = method code SF-RC, from DOI: 10.17863/cam.48378, PMID: 23133799; conditions: pH 7.4
[26] = method code SF, from You, R.; Wang, L.; Cong, L.; Wang, Q.; Cai, P.; Yuan, H. (2007). Physicochemical properties of oxymatrine-phospholipid complex. Pharmaceutical Journal of Chinese People's Liberation Army, …; conditions: pH 7.5
[27] = not given; remark: listed apart in the source
[28] = not given; remark: listed apart in the source
[29] = not given; remark: listed apart in the source
[30] = method code SF, from DOI: 10.1016/j.ecoenv.2008.09.011, PMID: 19560203
[31] = method code SF-RC, from DOI: 10.1021/jm701375u, PMID: 18307287; conditions: pH 7.4
[32] = not given; remark: listed apart in the source
[33] = from Comini, L.; Núñez Montoya, S.; Argüello, G.; Cabrera, J. (2006). Partition coefficient (log P) determination of anthraquinone derivatives isolated from Heterophyllaea pustulata Hook, f. (Rubiaceae). …; conditions: pH 7.4
[34] = pH 7.4
[35] = method code SF-AS, from DOI: 10.1021/jm9800301, PMID: 9748357; conditions: pH 7.4
[36] = method code SF-AS, from DOI: 10.1248/cpb.42.1084, PMID: 8069960
[37] = method code SF-AS, from Rainer, G.; Krüger, U.; Klemm, K. (1981). Synthesis and physico-chemical properties of lonazolac-Ca, a new antiphlogistic/antirheumatic agent. Arzneimittelforschung, 31(4)649-55.
[38] = not given; remark: listed apart in the source
[39] = not given; remark: listed apart in the source
[40] = not given; remark: listed apart in the source
[41] = not given; remark: listed apart in the source
[42] = not given; remark: listed apart in the source
[43] = method code SF-AS, from PMID: 6540096; conditions: pH 7.5
[44] = not given; remark: listed apart in the source
[45] = method code G, from Wang, L.; Li, H.; Wang, X.; Zhang, Z. (1993). Determination of aqueous solubilities and partition coefficients of substitutive ethylketone congeners by generator column. Huanjing Huaxue, 12(2)151-154.

In the case of `Cn1c(CCCC(=O)O)nc2cc(N(CCCl)CCCl)ccc21`, the logD [1] is reported as 0.44.

Work on `CC(C)Oc1cccc(NC(=O)c2ccccc2C(F)(F)F)c1` yielded a logP [2] of 3.7.

For `CCN1CCC[C@H]1CNC(=O)c1c(O)c(I)cc(OC)c1OC`, the logD [3] was 2.5.

Compound `N#Cc1ccc(OCC2CCN(C/C=C/I)CC2)cc1` has a logP of 3.36.

In the case of `CC(CC(=O)O)(N=O)c1cc(Oc2ccc(C(F)(F)F)cc2Cl)ccc1[N+](=O)[O-]` (stereo unspecified), the logP [4] is reported as 4.3.

`C=CCN1CCN(C(=O)N=NC(=O)N2CCN(CC=C)CC2)CC1` showed a logP [5] of 0.79.

In the case of `CCOC(=O)c1cncn1C(C)c1ccc(C2(C(F)(F)F)N=N2)cc1` (stereo unspecified), the logD [6] is reported as 4.4.

For `CCCn1c(=O)c2[nH]c(-c3ccc(S(=O)(=O)O)cc3)nc2n(CCC)c1=O`, the logP [7] was -0.03.

`COc1ccc(-c2coc3cc(O)ccc3c2=O)cc1` gave a logP [8] of 3.32.

`COc1ccc(C(c2ccc(OC)cc2)C(Cl)(Cl)Cl)cc1` gave a logD [9] of 3.82.

In the case of `Cc1ccc(N=NC(C)C(=O)NCCc2ccc(O)cc2)cc1` (stereo unspecified), the logD [10] is reported as 3.9.

`C=C(CC(=O)c1ccc(-c2ccccc2Cl)cc1)C(=O)O` showed a logD [11] of 3.32.

For `CCCCCCCCCCOC(=O)c1cc(=O)[nH]c(=O)[nH]1`, the logD [12] was 2.85.

In the case of `CN(C)C(=O)COC(=O)c1cc(S(N)(=O)=O)c(Cl)cc1NCc1ccco1`, the logD [13] is reported as 1.18.

In the case of `Nc1cc2c3c(cccc3c1)-c1ccccc1-2`, the logP [14] is reported as 3.14.

`CCCn1c(=O)c2[nH]c(C3CCCC3)nc2n(C/C=C/I)c1=O` showed a logD [15] of 2.96.

`COC1=CC(=O)CC(C)C12Oc1c(Cl)c(OC)cc(OC)c1C2=O` (stereo unspecified) gave a logD [16] of 2.33.

Work on `CCN1CCC[C@H]1CNC(=O)c1c(OC)ccc(Br)c1OC` yielded a logP [17] of 2.1.

`N#Cc1ccc(CN2CCC(COC/C=C/I)CC2)cc1` showed a logP [18] of 3.24.

`Cc1ccc(CCNc2cc(-c3n[nH]c(N)n3)ccn2)cc1C` showed a logP [19] of 3.08.

`CCc1onc(C)c1NC1=CC(=O)C(=O)c2ccccc21` gave a logP [20] of 2.14.

In the case of `CCCc1c2c(c(O)c3c(=O)cc(C(=O)O)oc13)CCCC2`, the logD [21] is reported as 4.4.

For `N#Cc1ccc(C(c2ccc(C#N)cc2)n2cncn2)cc1`, the logD [22] was 1.84.

Work on `CN(C)CCCc1ccccc1-c1ccccc1` yielded a logD [23] of 5.53.

In the case of `Cc1ccc(C(=O)Cn2c3c(sc2=N)CCCC3)cc1`, the logD [24] is reported as 1.49.

`FCCOCCON=C1C=C(C#Cc2ccccn2)CCC1` gave a logD [25] of 1.9.

Compound `O=C1CCC[C@@H]2[C@H]3CCC[N@+]4([O-])CCC[C@@H](CN12)[C@@H]34` has a logD [26] of -0.86.

Work on `Oc1ccc2ccccc2c1/N=N/c1ccccc1` yielded a logP [27] of 5.86.

With `O=C1NC(=O)C2(CCCCCCCCCCC2)C(=O)N1` the logP [28] was 3.51.

Work on `CCCCC(CC)CP(=O)(O)CC(CC)CCCC` (stereo unspecified) yielded a logP [29] of 3.92.

`CCOC(=O)C1=C[C@@H](OC(CC)CC)[C@H](NC(C)=O)[C@@H](N)C1` showed a logP [30] of 1.21.

For `Brc1cccc(N2CCN(Cc3cnn4ccccc34)CC2)n1`, the logD [31] was 1.98.

Compound `COCCN1C=CC(=C2C(=O)c3ccc(Cl)cc3C2=O)C=C1` has a logP [32] of 2.78.

`COc1c(CO)c(O)cc2c1C(=O)c1ccccc1C2=O` showed a logD [33] of 1.29.

For `O=C(Nc1ccnc(NC(=O)C2CC2)c1)c1c(Cl)cccc1Cl`, the logD [34] was 3.4.

`O=C(NCc1ccc(O)cc1)C(=O)c1c[nH]c2ccc([N+](=O)[O-])cc12` gave a logD [35] of 2.67.

Work on `COc1ccc(Nc2ccnc3cc(Cl)ccc23)cc1` yielded a logP [36] of 4.94.

Compound `O=C(O)Cc1cn(-c2ccccc2)nc1-c1ccc(Cl)cc1` has a logP [37] of 4.13.

For `COc1cccc(N(C)C(=N)Nc2cc(SC)ccc2Cl)c1`, the logP [38] was 2.34.

For `O=C(O)CCC(=O)c1ccc(-c2ccccc2)cc1`, the logP [39] was 2.91.

With `C[C@]12N[C@H](Cc3ccccc31)c1ccccc12` the logP [40] was 1.79.

Compound `O=[N+]([O-])c1cc(Cl)c(/N=N/c2ccc(N(CCO)CCO)cc2Cl)c(Cl)c1` has a logP [41] of 3.9.

For `c1cc(-c2cnc3c(-c4ccncc4)cnn3c2)ccn1`, the logP [42] was 2.5.

`CCc1cc2c(s1)N(C)C(=O)CN=C2c1ccccc1Cl` showed a logD [43] of 3.35.

With `c1cnc(N2CCN(Cc3ccc4c(c3)OCO4)CC2)nc1` the logP [44] was 2.84.

Work on `COc1ccc(C(=O)CSc2ccc(C)cc2)cc1` yielded a logP [45] of 2.47.
